Assays:
[1] = Ex vivo biodistribution in PC-3 tumor-bearing mice; settings: mouse; for tissue uptake at 120 h: 120 h post-injection; for tissue uptake at 24 h: 24 h post-injection; for tissue uptake at 72 h: 72 h post-injection; for tissue uptake at 4 h: 4 h post-injection
Procedure: (§1) SPECT/CT imaging experiments were performed using an MILabs (Houten, The Netherlands) U-SPECT-II/CT scanner with a custom-made ultra-high-sensitivity big mouse collimator (2 mm pinhole size) following previously reported procedures. […] Male NOD.Cg-Rag1^tm1Mom Il2rg^tm1Wjl/SzJ (NRG) mice were used in these experiments because of their immunodeficient characteristics and excellent radiation tolerance. Mice were anaesthetized and subcutaneously implanted with 5 × 10^6 PC-3 prostate cancer cells (100 µL; 1:1 PBS/Matrigel) behind the left shoulder. SPECT/CT imaging and biodistribution studies were performed once the tumors reached a diameter of 5–8 mm, typically after approximately 4 weeks of growth.
(§2) For ex vivo biodistribution studies, the mice were injected with ~2–6 MBq of the radioligand. […] Blocking study was conducted at 1 h post-injection via co-injection of the radioligand with 100 μg of [D-Phe^6,Leu-NHEt^13,des-Met^14]Bombesin(6–14). Organs/tissues of interested were collected, weighed, and measured using an automatic gamma counter.

PC-3 tumor-bearing mice = experiment: Ex vivo biodistribution in PC-3 tumor-bearing mice
Procedure: as §1, §2

[2] = test system: PC-3 tumor-bearing NRG mouse; experiment: Longitudinal SPECT/CT imaging in PC-3 tumor-bearing mice; format: in vivo, mice (NRG); settings: SPECT/CT images
Procedure: The PC-3 tumor-bearing mice were sedated (2.5% isoflurane in O2) and injected with ^177Lu-labeled ligands (15–32 MBq) through a lateral caudal tail vein. […] At each time point, a 5 min CT scan was obtained using 615 μA and 60 kV parameters for localization and attenuation, followed by 2 × 30 min static SPECT scans acquired in list mode with an energy window centered around 208 keV. The MILabs U-SPECT II reconstruction software (version 8.00) was used to reconstruct data, and the images were decay corrected to the time of injection with PMOD v 3.402 (PMOD Technologies GmbH, Fallanden, Switzerland).

[3] = LogD7.4 measurement, shake flask method; format: physicochemical; settings: n-octanol/DPBS pH 7.4, n = 3
Procedure: The logD7.4 values of all the ^177Lu-labeled GRPR-targeted ligands were measured using the shake flask method as previously reported. An aliquot (~2 MBq) of the radiolabeled product was added to a mixture of n-octanol (3 mL) and DPBS (3 mL, pH 7.4), followed by 1 min vortexing and 15 min centrifugation at 5000 rpm. Samples of the n-octanol (1 mL) and buffer (1 mL) layers were collected, and the activity was counted using a gamma counter. The logD7.4 values were calculated using the following equation: logD7.4=log10[countsn−octanolphase/countsbutterphase]

[4] = small intestine, Uptake in small intestine
[5] = 1 h blocked (co-injected with 100 µg [D-Phe6,Leu-NHEt13,des-Met14]Bombesin(6-14))
[6] = 1 h post-injection, 100 µg [D-Phe6,Leu-NHEt13,des-Met14]Bombesin(6–14)

tissue uptake at 120 h ([1]; liver, Uptake in liver): 0.04 ± 0.01 %ID/g
tissue uptake at 24 h ([1]; lungs, Uptake in lungs): 0.07 ± 0.03 %ID/g
tissue uptake at 1 h ([1]; muscle, Uptake in muscle, 1 h post-injection): 0.15 ± 0.02 %ID/g
tissue uptake at 24 h ([1]; muscle, Uptake in muscle): 0.01 %ID/g
tissue uptake at 72 h ([1]; muscle, Uptake in muscle): 0.01 %ID/g
tissue uptake at 1 h ([1]; pancreas, 100 ug, Uptake in pancreas, 1 h blocked (co-injected with 100 µg [D-Phe6,Leu-NHEt13,des-Met14]Bombesin(6-14))): 2.71 ± 0.76 %ID/g
tissue uptake at 1 h ([1]; pancreas, Uptake in pancreas, 1 h post-injection): 11.1 ± 1.37 %ID/g
tissue uptake at 4 h ([1]; pancreas, Uptake in pancreas): 4.91 ± 0.63 %ID/g
tissue uptake at 24 h ([1]; pancreas, Uptake in pancreas): 3.1 ± 0.48 %ID/g
tissue uptake at 120 h ([1]; pancreas, Uptake in pancreas): 0.34 ± 0.04 %ID/g
tissue uptake at 1 h ([1]; small intestine, 100 ug, Uptake in small intestine, 1 h blocked (co-injected with 100 µg [D-Phe6,Leu-NHEt13,des-Met14]Bombesin(6-14))): 0.49 ± 0.14 %ID/g
tissue uptake at 1 h ([1]; small intestine, Uptake in small intestine, 1 h post-injection): 2.01 ± 0.13 %ID/g
tissue uptake at 4 h [1, 4]: 0.56 ± 0.2 %ID/g
tissue uptake at 24 h [1, 4]: 0.3 ± 0.1 %ID/g
tissue uptake at 1 h ([1]; spleen, 100 ug, Uptake in spleen, 1 h blocked (co-injected with 100 µg [D-Phe6,Leu-NHEt13,des-Met14]Bombesin(6-14))): 0.21 ± 0.05 %ID/g
tissue uptake at 1 h ([1]; spleen, Uptake in spleen, 1 h post-injection): 0.28 ± 0.05 %ID/g
tissue uptake at 4 h ([1]; spleen, Uptake in spleen): 0.15 ± 0.03 %ID/g
tissue uptake at 72 h ([1]; spleen, Uptake in spleen): 0.1 ± 0.02 %ID/g
tissue uptake at 120 h ([1]; spleen, Uptake in spleen): 0.05 ± 0.01 %ID/g
tissue uptake at 1 h ([1]; stomach, 100 ug, Uptake in stomach, 1 h blocked (co-injected with 100 µg [D-Phe6,Leu-NHEt13,des-Met14]Bombesin(6-14))): 0.17 ± 0.1 %ID/g
tissue uptake at 1 h ([1]; stomach, Uptake in stomach, 1 h post-injection): 0.99 ± 0.21 %ID/g
tissue uptake at 4 h ([1]; stomach, Uptake in stomach): 0.43 ± 0.16 %ID/g
tissue uptake at 24 h ([1]; stomach, Uptake in stomach): 0.17 ± 0.07 %ID/g
tissue uptake at 72 h ([1]; stomach, Uptake in stomach): 0.08 ± 0.02 %ID/g
tissue uptake at 120 h ([1]; stomach, Uptake in stomach): 0.04 ± 0.02 %ID/g
tissue uptake at 1 h ([1]; testes, 100 ug, Uptake in testes, 1 h blocked (co-injected with 100 µg [D-Phe6,Leu-NHEt13,des-Met14]Bombesin(6-14))): 0.3 ± 0.16 %ID/g
tissue uptake at 24 h ([1]; testes, Uptake in testes): 0.02 ± 0.01 %ID/g
tissue uptake at 72 h ([1]; testes, Uptake in testes): 0.02 %ID/g
tissue uptake at 120 h ([1]; testes, Uptake in testes): 0.01 %ID/g
Uptake in lungs (PC-3 tumor-bearing mice; [5]): 0.52 ± 0.08 %ID/g
Uptake in muscle (PC-3 tumor-bearing mice; [5]): 0.14 ± 0.03 %ID/g
Tumor/blood uptake ratio (PC-3 tumor-bearing mice; 1 h post-injection): 15.9 ± 1.15
Uptake in adrenal glands (PC-3 tumor-bearing mice; 1 h post-injection): 1.22 ± 0.38 %ID/g
Uptake in blood (PC-3 tumor-bearing mice; 1 h post-injection): 0.69 ± 0.06 %ID/g
Uptake in bone (PC-3 tumor-bearing mice; 1 h post-injection): 0.14 ± 0.05 %ID/g
Uptake in brain (PC-3 tumor-bearing mice; 1 h post-injection): 0.03 ± 0.00 %ID/g
Uptake in liver (PC-3 tumor-bearing mice; 1 h post-injection): 0.40 ± 0.05 %ID/g
Uptake in lungs (PC-3 tumor-bearing mice; 1 h post-injection): 0.69 ± 0.12 %ID/g
Uptake in testes (PC-3 tumor-bearing mice; 1 h post-injection): 0.23 ± 0.04 %ID/g
Uptake in adrenal glands (PC-3 tumor-bearing mice; 4 h post-injection): 1.02 ± 0.33 %ID/g
Uptake in brain (PC-3 tumor-bearing mice; 4 h post-injection): 0.03 ± 0.02 %ID/g
Uptake in heart (PC-3 tumor-bearing mice; 4 h post-injection): 0.06 ± 0.06 %ID/g
Uptake in liver (PC-3 tumor-bearing mice; 4 h post-injection): 0.23 ± 0.07 %ID/g
Uptake in lungs (PC-3 tumor-bearing mice; 4 h post-injection): 0.23 ± 0.11 %ID/g
Uptake in muscle (PC-3 tumor-bearing mice; 4 h post-injection): 0.03 ± 0.01 %ID/g
Uptake in testes (PC-3 tumor-bearing mice; 4 h post-injection): 0.06 ± 0.05 %ID/g
Uptake in heart (PC-3 tumor-bearing mice; 24 h post-injection): 0.03 ± 0.00 %ID/g
Uptake in spleen (PC-3 tumor-bearing mice; 24 h post-injection): 0.12 ± 0.02 %ID/g
Uptake in adrenal glands (PC-3 tumor-bearing mice; 72 h post-injection): 0.41 ± 0.06 %ID/g
Uptake in kidneys (PC-3 tumor-bearing mice; 72 h post-injection): 0.52 ± 0.10 %ID/g
Uptake in large intestine (PC-3 tumor-bearing mice; 72 h post-injection): 0.23 ± 0.04 %ID/g
Uptake in lungs (PC-3 tumor-bearing mice; 72 h post-injection): 0.06 ± 0.03 %ID/g
Uptake in pancreas (PC-3 tumor-bearing mice; 72 h post-injection): 1.03 ± 0.30 %ID/g
Uptake in small intestine (PC-3 tumor-bearing mice; 72 h post-injection): 0.09 ± 0.03 %ID/g
Uptake in large intestine (PC-3 tumor-bearing mice; 120 h post-injection): 0.09 ± 0.02 %ID/g
Uptake in lungs (PC-3 tumor-bearing mice; 120 h post-injection): 0.03 ± 0.03 %ID/g
Uptake in small intestine (PC-3 tumor-bearing mice; 120 h post-injection): 0.03 ± 0.00 %ID/g
Uptake in large intestine (PC-3 tumor-bearing mice; mouse, in vivo, 100 ug, 1 h): 0.29 ± 0.08 %ID/g
uptake in PC-3 tumor xenografts cleared within 24 h (PC-3 tumor-bearing mice; relative to 1 h uptake): 37%
excretion pathway [2]: excreted mainly via the renal pathway
logD [3]: -2.76 ± 0.1
SMILES: CC(C)C[C@H](NC(=O)[C@H](Cc1cnc[nH]1)N(C)C(=O)CNC(=O)[C@@H](NC(=O)[C@H](C)NC(=O)[C@H](Cc1c[nH]c2ccccc12)NC(=O)[C@H](CCC(N)=O)NC(=O)[C@@H](Cc1ccccc1)NC(=O)CN1CCC(NC(=O)CN2CCN(CC(=O)O)CCN(CC(=O)O)CCN(CC(=O)O)CC2)CC1)C(C)(C)C)C(=O)N1CSC[C@H]1C(N)=O [[^177Lu]Lu-LW01110, metal not drawn]
reduction of average pancreas uptake by co-injection of blocker (PC-3 tumor-bearing mice; [6]): 76%
reduction of average tumor uptake by co-injection of blocker (PC-3 tumor-bearing mice; [6]): 73%
